The results in this text go back to US20260226086A1, “COMPOUNDS AND COMPOSITIONS AS STAT3 DEGRADERS AND USES THEREOF” (REGENTS OF THE UNIVERSITY OF MICHIGAN, priority 2023, published 2026).

Each structure is given as a SMILES string.

Holding throughout (format): cell-based
One assay deals with SUP-M2 cells. Put plainly: CellTiter-Glo 2.0 cell viability assay, SUP-M2. The conditions noted are these: SUP-M2, 96 h, 4 days. The essentials:
(§1)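 IC50 derived by four-parameter nonlinear regression on triplicate luminescence data (CellTiter-Glo 2.0), normalised to untreated controls. Cells plated at 1000/well received serial compound dilutions for 4 days at 37 °C with 5% CO2.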

The target of a further assay is T1, STAT3 (Homo sapiens, UniProt P40763).
T1 construct: This cell line is a clone created by using CRISPR-Cas9 to fuse HiBiT to the 3′ end of STAT3 in HeLa cells; host or cells: STAT3-HiBiT KI HeLa cell line (CRISPR-Cas9 knock-in clone)
T1 sequence (P40763 whole entry): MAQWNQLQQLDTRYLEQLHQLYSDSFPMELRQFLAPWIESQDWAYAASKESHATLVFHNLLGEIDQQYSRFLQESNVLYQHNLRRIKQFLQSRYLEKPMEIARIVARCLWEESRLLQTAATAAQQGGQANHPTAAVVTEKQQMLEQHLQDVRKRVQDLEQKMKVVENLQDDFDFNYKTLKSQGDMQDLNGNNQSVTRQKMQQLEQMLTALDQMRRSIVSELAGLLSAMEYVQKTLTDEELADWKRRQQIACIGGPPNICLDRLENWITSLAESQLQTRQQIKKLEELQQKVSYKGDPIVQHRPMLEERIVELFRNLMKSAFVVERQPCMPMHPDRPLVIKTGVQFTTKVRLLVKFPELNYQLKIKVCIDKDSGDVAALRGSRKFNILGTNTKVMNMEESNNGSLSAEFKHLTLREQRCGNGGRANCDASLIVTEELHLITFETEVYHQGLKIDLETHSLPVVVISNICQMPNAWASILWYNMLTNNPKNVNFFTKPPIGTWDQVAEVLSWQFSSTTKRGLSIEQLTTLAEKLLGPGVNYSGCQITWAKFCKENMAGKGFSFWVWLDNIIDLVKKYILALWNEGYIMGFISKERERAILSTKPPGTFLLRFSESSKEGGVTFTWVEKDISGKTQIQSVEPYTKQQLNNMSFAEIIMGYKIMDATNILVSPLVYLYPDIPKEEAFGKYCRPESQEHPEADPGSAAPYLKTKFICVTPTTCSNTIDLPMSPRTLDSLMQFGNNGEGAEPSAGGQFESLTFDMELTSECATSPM
Kind of assay: HiBiT assay, STAT3 degradation in STAT3-HiBiT KI HeLa cells. The conditions noted are these: 24 h; for DC50: read-out: STAT3 Degradation (HeLa 24 h HiBit) DC50. The essentials: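 Luminescence of endogenous HiBiT-tagged STAT3 (C-terminal knock-in, HeLa) was measured with lytic Nano-Glo detection after 24 h exposure to serially diluted compounds at 37 °C. Cells plated at 20000/well; untreated cells served as control, and triplicate means were fit by four-parameter regression to give IC50.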

For a further assay, the system named is SU-DHL-1 cells. Kind of assay: CellTiter-Glo 2.0 cell viability assay, SU-DHL-1. The conditions noted are these: Homo sapiens, 96 h, 4 days. The essentials:
as §1

Molecule `CC(=O)N1CC[C@H]2CC[C@@H](C(=O)N[C@@H](CCC(N)=O)COc3cccc(CCCc4cn([C@H](C(=O)N5C[C@H](O)C[C@H]5C(=O)N[C@@H](CN5CCOCC5)c5ccc(-c6scnc6C)cc5)C(C)(C)C)nn4)c3Cl)N2C(=O)[C@@H](NC(=O)c2cc3cc(C(=O)P(=O)(O)O)ccc3[nH]2)C1` [Compound 5, (2-(((5S,8S,10aR)-3-acetyl-8-(((S)-5-amino-1-(2-chloro-3-(3-(1-((S)-1-((2S,4R)-4-hydroxy-2-(((R)-1-(4-(4-methylthiazol-5-yl)phenyl)-2-morpholinoethyl)carbamoyl)pyrrolidin-1-yl)-3,3-dimethyl-1-oxobutan-2-yl)-1H-1,2,3-triazol-4-yl)propyl)phenoxy)-5-oxopentan-2-yl)carbamoyl)-6-oxodecahydropyrrolo[1,2-a][1,5]diazocin-5-yl)carbamoyl)-1H-indole-5-carbonyl)phosphonic acid] yielded a 50% inhibitory concentration (IC50) in the assay with SUP-M2 cells of 10 to 100 nM. At STAT3, the greatest degradation seen (Dmax) at 1 µM was greater than 80% and the DC50 lay in the range of 10 to 100 nM. The IC50 with SU-DHL-1 cells was 10 to 100 nM.

With `CCS(=O)(=O)c1ccc(CNC(=O)[C@H](CCC(N)=O)NC(=O)[C@@H]2CC[C@@H]3CCN(C(=O)CCCCc4cn([C@H](C(=O)N5C[C@H](O)C[C@H]5C(=O)N[C@@H](CCN5CCOCC5)c5ccc(-c6scnc6C)cc5)C(C)(C)C)nn4)C[C@H](NC(=O)c4cc5cc(C(=O)P(=O)(O)O)ccc5[nH]4)C(=O)N32)cc1` [Compound 17, (2-(((5S,8S,10aR)-8-(((S)-5-amino-1-((4-(ethylsulfonyl)benzyl)amino)-1,5-dioxopentan-2-yl)carbamoyl)-3-(5-(1-((S)-1-((2S,4R)-4-hydroxy-2-(((S)-1-(4-(4-methylthiazol-5-yl)phenyl)-3-morpholinopropyl)carbamoyl)pyrrolidin-1-yl)-3,3-dimethyl-1-oxobutan-2-yl)-1H-1,2,3-triazol-4-yl)pentanoyl)-6-oxodecahydropyrrolo[1,2-a][1,5]diazocin-5-yl)carbamoyl)-1H-indole-5-carbonyl)phosphonic acid], the IC50 with SUP-M2 cells and in the assay on SU-DHL-1 cells was 100 to 1000 nM throughout. The Dmax at 1 µM at STAT3 is greater than 80%. Moreover, the DC50 on STAT3 is 100 to 1000 nM.

Consider `Cc1ncsc1-c1ccc([C@H](C)NC(=O)[C@@H]2C[C@@H](O)CN2C(=O)[C@@H](n2cc(CC(=O)N3CC[C@H]4CC[C@@H](C(=O)N[C@@H](CCC(N)=O)C(=O)NC(c5ccccc5)c5ccccc5)N4C(=O)[C@@H](NC(=O)c4cc5cc(C(=O)P(=O)(O)O)ccc5[nH]4)C3)nn2)C(C)(C)C)cc1` [Compound 54, (2-(((5S,8S,10aR)-8-(((S)-5-amino-1-(benzhydrylamino)-1,5-dioxopentan-2-yl)carbamoyl)-3-(2-(1-((S)-1-((2S,4R)-4-hydroxy-2-(((S)-1-(4-(4-methylthiazol-5-yl)phenyl)ethyl)carbamoyl)pyrrolidin-1-yl)-3,3-dimethyl-1-oxobutan-2-yl)-1H-1,2,3-triazol-4-yl)acetyl)-6-oxodecahydropyrrolo[1,2-a][1,5]diazocin-5-yl)carbamoyl)-1H-indole-5-carbonyl)phosphonic acid], for which the half-inhibitory concentration (IC50) in the assay with SUP-M2 cells and with SU-DHL-1 cells was greater than 1000 nM in each case. In addition, the 50% degradation concentration (DC50) at STAT3 was greater than 1000 nM.
